Experimental data: US12213482B2, “Fungicide enhancers effective for treating plants infected with fungal pathogens” (Board of Regents, The University of Texas System, priority 2015, dated 2025)

Experiments:
[1] = system: Colletotrichum graminicola; assay: Antifungal susceptibility disk test, fungicide disk plus apyrase inhibitor in plate; type: cell-based; settings: inhibitor 65 μM, 30° C., 7 days; for inhibitory effect on the growth of C. graminicola compared to copper octanoate alone: combined with copper octanoate (285 mM) disk, FIG. 3A; for inhibitory effect on the growth of C. graminicola compared to myclobutanil alone: combined with myclobutanil (53.6 mM) disk, FIG. 3B
Protocol: (§1) Copper Octanoate, 3B. Propiconazole, and 3C. Myclobutanil against the pathogenic fungi Colletotrichum graminicola. […] The equivalent volume of dimethylsulphoxide (DMSO) was added as a control. The studies were repeated two times with similar results. Error bars indicate standard deviations (n=5). The significances of the potency of fungicides are indicated: *** (Student's t-test, P<0.001; **(Student's t-test, P<0.01) or *(Student's t-test, P<0.05). The plant pathogenic fungal strains Botrytis cinerea, Colletotrichum graminicola, Fusarium oxysporum, Sclerotiana sclerotiorum and Verticillium dahliae were obtained from the Institute for Plant Genomics & Biotechnology, Texas A & M University, USA Potato dextrose agar (PDA, Sigma-Aldrich) was routinely used for the growth of different pathogenic fungal strain. Ectophosphatase inhibitors NGXT191 (AI.1), AI.10, NGXT1913 (AI.13), and AI. 15 were used dal this study. The fungicides copper octanoate (C16H30CuO4), myclobutanil (C15H17ClN4) and propiconazole (C15H17Cl2N3O2) were used. The concentrations of these compounds used were copper octanoate (285 mM), myclobutanil (53.6 mM) and propiconazole (418 mM). Standard antifungal susceptibility disk tests were performed to determine any potentiating effect of ectophosphatase inhibitors on the growth of pathogenic fungus. The pathogenic fungus wild-type strains were plated on PDA medium with paper-disks containing, fungicides at the center of the plate. […] Plates were incubated at 30° C. for 7-days (C. graminicola and S. sclerotiorum) or 12-days (B. cinerea, F. oxysporum and V. dahliae), depending on the growth rate of the fungi. Plates were photographed, and the zone of fungal growth inhibition was measured by using IMAGE J™ software (NIH, USA). All the tests were performed with 5 replicates. The studies were performed two times. Results were analyzed for significance using Student T-tests.

Botrytis cinerea = assay: as above; type: cell-based; settings: inhibitor 65 μM, 30° C., 12 days; for inhibitory effect on the growth of B. cinerea compared to myclobutanil alone: combined with myclobutanil (53.6 mM) disk, FIG. 2B; for inhibitory effect on the growth of B. cinerea compared to propiconazole alone: combined with propiconazole (418 mM) disk, FIG. 2C
Protocol: as §1, with “2A. Copper” for “Copper”, “2B.” for “3B.”, “2C.” for “3C.”, “Botrytis cinerea.” for “Colletotrichum graminicola.”, “P<0.001); ** (Student's” for “P<0.001; **(Student's”

Row | Structure (SMILES) | inhibitory effect on the growth of C. graminicola compared to copper octanoate alone [1] | inhibitory effect on the growth of C. graminicola compared to myclobutanil alone [1] | inhibitory effect on the growth of B. cinerea compared to myclobutanil alone (Botrytis cinerea) | inhibitory effect on the growth of B. cinerea compared to propiconazole alone (Botrytis cinerea)
1 | Cc1cccc(NS(=O)(=O)c2ccc(-c3ccccc3)cc2)c1 [AI.1, N-(m-tolyl)-[1,1′-biphenyl]-4-sulfonamide] | significantly greater inhibitory effect | significantly greater inhibitory effect | significantly greater inhibitory effect | greater inhibitory effect
2 | CCCCCCCSC(=O)c1cc2ccccc2oc1=O [AI.10, S-heptyl 2-oxo-2H-chromene-3-carbothioate] |  | significantly greater inhibitory effect |  | greater inhibitory effect
3 | O=C(Nc1cccc([N+](=O)[O-])c1)c1cccc(S(=O)(=O)Nc2ccc(Br)cc2)c1 [AI.13, 3-(N-(4-bromophenyl)sulfamoyl)-N-(3-nitrophenyl)benzamide] | significantly greater inhibitory effect | significantly greater inhibitory effect | significantly greater inhibitory effect | 
4 | C/C(=N\NC(=O)c1cccc(C)c1)c1ccc2ccccc2c1 [AI.15, (E)-3-methyl-N′-(1-(naphthalen-2-yl)ethylidene)benzohydrazide] |  | significantly greater inhibitory effect | significantly greater inhibitory effect | greater inhibitory effect
